Data taken from patent US20170348258A1, “3-Amino Benzamide Derivative Serving As B-Lactam Auxiliary Antibiotic, Preparation Method and Use Thereof” (THE HONG KONG POLYTECHNIC UNIVERSITY, priority 2014, published 2017).

Experiments:
MRSA strain 85 = test: FICI of F332 with antibiotics; assay type: cell-based, S. aureus
MRSA strain 2919 = test: FICI of F332 with antibiotics; assay type: cell-based, S. aureus
in vivo = conditions: male, Sprague-Dawley, rat
Protocol: Compound F332 was further subjected to in vivo pharmacokinetic study. The UPLC-MS/MS system consists of an Acquity Waters UPLC interfaced with triple quadrupole mass spectrometer (Micromass model Quattro Ultima) equipped with an electrospray ionization source in positive mode. Chromatographic separation was done on ACQUITY UPLC BEH C18 […] (2.1×50 mm) column. The mobile phase consists of methanol+0.1% formic acid (solvent B) and Milli-Q water+0.1% formic acid (solvent A). Multiple reaction monitoring (MRM) was set monitoring the transitions for F332 [M+H]^+ at 299>142 m/z. The collision energy, cone voltage, source temperature, desolvation temperature and capillary voltage are 25, 30, 150° C., 350° C. and 3 Kv, respectively. The cone gas and desolvation gas was 150 L/Hr and 600 L/Hr, respectively.
Male Sprague-Dawley (SD) rats (body weight 250-280 g) were obtained from Centralised Animal Facilities, The Hong Kong Polytechnic University. Animals were kept in a temperature and humidity controlled environment with 12 hour light-dark cycle with standard diet and water. Animal experiment protocol was approved by the Animal Subjects Ethics Sub-Committee of The Hong Kong Polytechnic University. Right jugular vein cannulation was done one day in advance of the experiment. Animal were fasted overnight and had free access to water throughout the experiment. F332 was freshly prepared in 5% CremophorEL, 5% ethanol, 90% saline at a concentration of 2 mg/ml. F332 was prepared on the day of use and used for animal study within half an hour. In the current study, F332 was administered through passive oral feeding (oral) and intravenous (IV) injection. Blood samples (approx. 500 μL) were collected in heparinzied tubes (20 units of heparin salt/tube) via jugular vein at 5, 10, 30, 45, 60, 120, 240 and 420 minutes post administration for IV study. As for oral study, plasma samples were collected at 2, 10, 30, 45, 60, 120, 240, 480 and 600 minutes. Blood plasma samples were collected by centrifuged at 16,100 G for 10 minutes. For all blood plasma samples, 3 fold volume of methanol was added for protein precipitation. Supernatant was filtered by a syringe filter before UPLC-MS/MS analysis. Pharmacokinetic parameters in plasma were determined by non-compartmental pharmacokinetics data analysis using Pharmacokinetics Solutions 2.0 software (Summit Research Services, Montrose, Colo., USA). The pharmacokinetic parameters determined include maximal plasma concentration (Cmax), time to reach maximal plasma concentration (Tmax), mean residence time (MRT), absorption/distribution half life (t1/2α), elimination half life (t1/2β), volume of distribution (Vd), systemic clearance (CL) and the area under the concentration-time curve (AUC).

MRSA strain 200 = test: FICI of F332 with antibiotics; assay type: cell-based, S. aureus
[1] = biological target: T1, B. subtilis FtsZ-eGFP fusion protein (Bacillus subtilis, UniProt P17865); test: Fluorescence microscopy of FtsZ-eGFP localization; assay type: cell-based; conditions: 3 μM F332, 4 hours
T1 construct: expressed in transfected cells; host or cells: B. subtilis 168 transformed with pFZ-FtsZ-eGFP
Protocol: The localization of the filamentation in B. subtilis that induced by F332 was performed by fluorescence microscopy using the cell division protein FtsZ identified by a green fluorescent protein. The expression plasmid of the FtsZ-eGFP fusion protein was constructed as follows (the structure of the plasmid was shown in FIG. 10a).
to amplify the eGFP gene fragment, with about 700 base pairs. Two fragments were ligated by overlap extension PCR method and then digested with endonucleases EcoRI and BamHI. They were ligated into the corresponding cleavage site of pFZ2.0 and transformed into E. coli BL21 (DE3) and screened on chloramphenicol plates to obtain the plasmid pFZ-FtsZ-eGFP. The plasmid extracted was transformed into B. subtilis 168 and grown in LB medium containing chloramphenicol. The expression of FtsZ-eGFP gene was observed by adding different concentrations of lactose or IPTG
The B. subtilis shown in FIGS. 10b and 10c was cultured in the absence of F332.
The B. subtilis shown in FIGS. 10d and 10e was cultured in the presence of F332. […] Thus, the expression of the protein was not only at the position where cell division was performed.

MRSA strain 358 = test: FICI of F332 with antibiotics; assay type: cell-based, S. aureus
MRSA strain 3267 = test: FICI of F332 with antibiotics; assay type: cell-based, S. aureus
MRSA strain 2224 = test: FICI of F332 with antibiotics; assay type: cell-based, S. aureus
MRSA strain 3411 = test: FICI of F332 with antibiotics; assay type: cell-based, S. aureus
MRSA strain 256 = test: FICI of F332 with antibiotics; assay type: cell-based, S. aureus

## CCCCCCCCCNc1ccc(F)c(C(N)=O)c1F [Compound F332, 2,6-difluoro-3-(nonylamino)benzamide]
MRSA strain 85
  FICI of F332 combined with Amoxicillin: 0.04
  FICI of F332 combined with Cefuroxime: 0.25
  FICI of F332 combined with Cloxacillin: 1.00
  FICI of F332 combined with Meropenem: 4.01
  FICI of F332 combined with Meticillin: 0.50
MRSA strain 2919
  FICI of F332 combined with Amoxicillin: 0.51
  FICI of F332 combined with Cefuroxime: 0.25
  FICI of F332 combined with Cloxacillin: 0.31
  FICI of F332 combined with Meropenem: 4.25
  FICI of F332 combined with Meticillin: 0.38
In vivo; iv, 1 mg/kg
  AUC: 1740 ng·h/mL
  AUC(0-t): 699 ng·h/mL
  MRT: 8.08 h
  Vd: 4.81 L/kg
  clearance: 10 mL/min/kg
In vivo; iv, 1 mg/kg, Absorption/distribution half life
  half-life: 0.25 h
In vivo; iv, 1 mg/kg, Elimination half life
  half-life: 5.82 h
In vivo; po, 50 mg/kg
  AUC: 10400 ng·h/mL
  AUC(0-t): 8980 ng·h/mL
  CL (area)/kg: 80 mL/min/kg
  Cmax: 1920 ng/mL
  MRT: 4.82 h
  Tmax: 2 h
  Vd (area)/kg: 20.916 L/kg
  half-life: 3 h
In vivo; po, 50 mg/kg, Absorption/distribution half life
  half-life: 0.35 h
In vivo; po, 50 mg/kg, Bioavailability
  bioavailability: ~12%
MRSA strain 200
  FICI of F332 combined with Amoxicillin: 0.02
  FICI of F332 combined with Cefuroxime: 1.00
  FICI of F332 combined with Cloxacillin: 1.00
  FICI of F332 combined with Meropenem: 8.01
  FICI of F332 combined with Meticillin: 0.25
[1]
  localization of FtsZ-eGFP in B. subtilis 168 cells: Green fluorescence appeared in multiple parts of B. subtilis cells
MRSA strain 358
  FICI of F332 combined with Amoxicillin: 0.27
  FICI of F332 combined with Cefuroxime: 1.13
  FICI of F332 combined with Cloxacillin: 1.06
  FICI of F332 combined with Meropenem: 129.0
  FICI of F332 combined with Meticillin: 0.25
MRSA strain 3267
  FICI of F332 combined with Amoxicillin: 0.25
  FICI of F332 combined with Cefuroxime: 0.01
  FICI of F332 combined with Cloxacillin: 0.25
  FICI of F332 combined with Meropenem: 4.01
  FICI of F332 combined with Meticillin: 0.07
MRSA strain 2224
  FICI of F332 combined with Amoxicillin: 0.19
  FICI of F332 combined with Cefuroxime: 0.25
  FICI of F332 combined with Cloxacillin: 0.25
  FICI of F332 combined with Meropenem: 4.01
  FICI of F332 combined with Meticillin: 0.13
MRSA strain 3411
  FICI of F332 combined with Amoxicillin: 2.02
  FICI of F332 combined with Cefuroxime: 1.00
  FICI of F332 combined with Cloxacillin: 0.53
  FICI of F332 combined with Meropenem: 3.00
  FICI of F332 combined with Meticillin: 1.02
MRSA strain 256
  FICI of F332 combined with Amoxicillin: 0.08
  FICI of F332 combined with Cefuroxime: 0.01
  FICI of F332 combined with Cloxacillin: 0.13
  FICI of F332 combined with Meropenem: 4.01
  FICI of F332 combined with Meticillin: 0.04
